According to patent publication US20250195523A1, “ORGANIC MOLECULES FOR TREATING MYELIN PATHOLOGIES” (ICM (INSTITUT DU CERVEAU ET DE LA MOELLE ÉPINIÈRE), priority 2022, published 2025):

Key:
[1] = test system: cerebellar slices explants; test: Ex vivo cerebellar organotypic explant culture, differentiation and myelination index; type: cell-based, mice; details: 750 nM, three days (7-10 DIV)
Method: We prepared cerebellar organotypic cultures from newborn (P0) mice. Cerebellar parasagittal slices (350 μm thick) were cut on a McIlwain tissue chopper and transferred onto 30 mm diameter Millipore culture inserts with […] (Millicell, Millipore). Slices were maintained in incubators at 37° C., under a humidified atmosphere containing 5% CO2 in six-well-plates containing 1 mL of slice culture media. This medium includes basal medium eagle (Invitrogen), 25% complete HBSS, 27 mM D-glucose, 100 U/mL penicillin/streptomycin, 1 mM glutamine (Sigma) and 5% horse serum (New Zealand origin, heat inactivated; Invitrogen). Medium was renewed every 2 days until 7 DIV, reaching the appropriate culture periods to study OPC differentiation and myelination. […] Slices were collected and fixed for 1 h at RT in PBS-4% paraformaldehyde, washed 3 times in PBS, and incubated 20 min at 4° C. in Clark's solution (95% ethanol/5% acetic acid), then washed 3 times in PBS 1×.
For ex-vivo cerebellar slices, slices were incubated 20 min at 4° C. in Clark's solution (95% ethanol/5% acetic acid), then washed 3 times in PBS 1×. Then, sections were incubated for 1 hour in a blocking buffer (0.2% Triton X-100/4% bovine serum albumin/4% donkey serum/PBS). Slices were incubated for 2 hours with the following primary antibodies at RT: Goat anti-Sox10 (1:100, R&D Systems); Rabbit anti-Calbindin (1:1000; Swant); Rat anti-MBP (1:200; Abcam); Mouse anti-CC1 (IgG2b; 1:100, Calbiochem). Then slices were washed 3 times in PBS/0.1% Triton X-100 and incubated in blocking buffer (dark, RT) for 2 hours with appropriate secondary antibodies conjugated with Alexa Fluor 488, 594 and 647 (1:1000; Molecular Probes or Thermo Fisher) and Dapi (1:5000 from working solution at 5 mg/ml; Life Technologies; D1306). Finally, slices were washed 3 times in PBS/0.1% Triton X-100 after incubation and mounted in Fluoromount-G (SouthernBiotech).
Then, we firstly performed a simpler and faster experimental model using cerebellar slices explants to identify the best drugs having pro-oligodendrogenenic and pro-myelinating activities in this ex vivo model, to be used in the in vivo analyses. Indeed, this model allowed us to better assess later aspects of OL maturation, myelination, and cytotoxicity in a richer cellular system, also containing immune cells (microglia/macrophages) that are known to influence oligodendrogenesis and (re) myelination. In this model, the start of myelination takes place after 7 days in culture (FIG. 3A). […] We then analyzed the effect in terms of OL numbers (CC1+/Sox10+ cells) and myelination (MBP labeling on CaBP+ Purkinje cell axons), by immunodetection of all four markers in the same sections. We calculated the differentiation index as the ratio of Sox10+ cells being CC1+, and the myelination index as the ratio CaBP+ axons being MBP+. […] On the one hand, we used the adult focal de/remyelination induced by intracerebral injection of […] (LPC) mimicking de/remyelination of MS, and on the other hand, the neonatal chronic hypoxia model, mimicking PTB hypomyelination.

[2] = test system: focal demyelination in the corpus callosum of adult mice; test: Lysolecithin (LPC) induced focal de/remyelination model in adult mice, oral administration in drinking water; type: in vivo; details: 7 dpl, oral daily
Method: We weighted and anesthetized 4 months old RjOrl: SWISS mice (Janvier) with isoflurane (induced at 3%, and maintained at 1.2-1.6%). We induced focal demyelinating lesions by injecting 0.5 μl of a solution of 1% lysolecithin (LPC, Sigma in 0.9% NaCl solution) into the corpus callosum. To do so, a glass-capillary connected to a 10 μl Hamilton syringe was fixed and oriented through stereotaxic apparatus (coordinates: 1 mm lateral, 1.3 mm rostral to Bregma, 1.7 mm deep to brain surface). Animals were left to recover for a few hours in a warm chamber. […] Mice was perfused at 2% cold paraformaldehyde (thermos fisher) at 7 DPI.
For in-vivo cryosections (14-μm thick) of lesions, immunohistochemistry was performed after 30 mn drying at RT in a moist chamber. For myelin staining, ethanol treatment (100%) was performed for 10 mn at RT. Briefly, sections were permeabilized and blocked in a blocking buffer for 1 h (0.05% Triton X-100/10% normal goat serum/PBS). Then, cryosections were incubated overnight with the following primary antibodies at 4° C.: Mouse anti-APC (CC1 IgG2B; 1:100, calbiochem); Rabbit anti-Olig2 (1:500; Millipore); Mouse anti-Olig1 (IgG1; 1:500; NeuroMab); Rat anti-CD68 (1:500, AbD SEROTEC/BioRad); Rabbit anti-IBA1 (1:500, Wako Fujifilm); Mouse anti-MOOG (mlgG1, 1:20; Hybridoma). Then sections were washed 3 times in 0.05% Triton X-100/PBS and incubated 1 hour at RT with appropriate secondary antibodies conjugated with Alexa Fluor 488, 594 and 647 (1:1000; Molecular Probes or Thermo Fisher) and Dapi (1:5000 from working solution at 5 mg/ml; Life Technologies; D1306). Sections were washed 3 times in 0.05% Triton X-100/PBS and mounted with Fluoromount-G (SouthernBiotech).
We analyzed the lesions at 7 days post-lesion (7 dpl), when newly formed OLs have started to remyelinate the lesion in this model. The lesion area was identified by immunodetection of the high cellular density with DAPI staining, reduction of myelin with myelin oligodendrocyte glycoprotein (MOG), and abundance of microglia/macrophages with Iba1 and Cd68. We determined the effect of the drugs to promote oligodendrogenesis at the lesion site by combinatory immunodetection of Olig2, CC1 and Olig1, allowing to distinguish OPCs (Olig2^high/CC1^−/Olig1^nuclear-cyto cells) and three stages in OL differentiation: iOL1 (Olig2^high/CC1^high/Olig1^− cells), iOL2 (Olig2^high/CC1^high/Olig1^high-cyto cells), and mOL (Olig2^low/CC1^low/Olig1^low cells). […] Given the increase in OL differentiation by the drugs administration, without diminishing the pool of OPCs in the lesion area, we assessed for the proliferative status of OPCs, using Mcm2 and Ki67 proliferative markers, finding that both drugs promote a ˜2-fold increase in the density of proliferative OPCs (FIG. 4D) and in the proportion of proliferative OPCs (FIG. 4E).
To investigate the possible anti-inflammatory and pro-regenerative activity of these drugs, we performed staining for microglia/macrophages (Iba1+ cells), their active phagocytic status (Cd68+ cells), together with myelin (MOG) and cell density (DAPI) to identify the lesion area.

CCCCOc1ccc(C(=O)CCN2CCCCC2)cc1.Cl [Sm5, Dyclonine hydrochloride]
differentiation index (CC1+/Sox10+ OLs number) ([1]; compared to negative controls, FIG. 3B): increased differentiation index | myelination process (MBP+/CaBP+), myelination index ([1]; compared to vehicle, FIG. 3C): robust increase | number of oligodendroglial cells in the remyelinating area (Olig2+ cells) ([2]; sm5 at 5 μg per g, control 942.5±265.7, FIG. 4B): 1208±281.1 Olig2+ cells per mm^2 | density of OPCs (Olig2high/CC1−/Olig1nuclear-cyto cells) in the lesion area ([2]; FIG. 4C): did not change | increase of the differentiation ratio (number of OLs per OPC) versus control ([2]; FIG. 4F): 2 fold | pro-regenerative microglia (Arg1+ cells) ([2]; FIG. 4I): corresponding increase | actively phagocytic microglia/macrophages (Cd68+ cells) ([2]; control 22.45%, FIG. 4H): reduction of their phagocytic population | differentiation ratio (number of OLs per OPC) ([2]; control 25% (1 OLs for 4 OPCs), FIG. 4F): 50% | surface occupied by Iba1+ microglia/macrophages in the lesion area ([2]; control 33.64%, FIG. 4G): trend to reduce | increase of each stage of OL differentiation (iOL1, iOL2 & mOL) ([2]; versus control): more moderate effect only significant at the iOL2 stage | increase in the density of proliferative OPCs (Mcm2, Ki67 markers) ([2]; versus control, FIG. 4D): ~2 fold | increase in the proportion of proliferative OPCs ([2]; versus control, FIG. 4E): ~2 fold
